Laboratory results published in publication PMC7140522, “The Pyrazolo[3,4-d]pyrimidine Derivative, SCO-201, Reverses Multidrug Resistance Mediated by ABCG2/BCRP” (Cells, 2020).
Each block holds one compound with its values, some of them ahead of it.

Legend:
CYP2D6 = CYP2D6 (Homo sapiens, UniProt P10635); settings: both, pH 7.4
HT29PAR cells = test: MDR reversal analysis with MTT assay, HT29PAR; assay type: cell-based; settings: Homo sapiens, 72 h drug exposure, read-out: IC50 Value for Each Cell Line: HT29PAR
Method: (§1) Control conditions consisted of full growth medium. All treatments were performed in triplicate.

[1] = Apparent permeability across Caco-2 cell monolayers; settings: human, Caco-2, pH 7.4
BCRP [2] = target: T1, BCRP (Homo sapiens, UniProt Q9UNQ0); test: […] ATPase assay with recombinant BCRP membranes; assay type: biochemical; parameters: purchased Solvo Biotechnology (via Sigma-Aldrich/Merck) SB-BCRP-M; settings: sulfasalazine alone; basal activity 50.68
T1 sequence (Q9UNQ0 1-655): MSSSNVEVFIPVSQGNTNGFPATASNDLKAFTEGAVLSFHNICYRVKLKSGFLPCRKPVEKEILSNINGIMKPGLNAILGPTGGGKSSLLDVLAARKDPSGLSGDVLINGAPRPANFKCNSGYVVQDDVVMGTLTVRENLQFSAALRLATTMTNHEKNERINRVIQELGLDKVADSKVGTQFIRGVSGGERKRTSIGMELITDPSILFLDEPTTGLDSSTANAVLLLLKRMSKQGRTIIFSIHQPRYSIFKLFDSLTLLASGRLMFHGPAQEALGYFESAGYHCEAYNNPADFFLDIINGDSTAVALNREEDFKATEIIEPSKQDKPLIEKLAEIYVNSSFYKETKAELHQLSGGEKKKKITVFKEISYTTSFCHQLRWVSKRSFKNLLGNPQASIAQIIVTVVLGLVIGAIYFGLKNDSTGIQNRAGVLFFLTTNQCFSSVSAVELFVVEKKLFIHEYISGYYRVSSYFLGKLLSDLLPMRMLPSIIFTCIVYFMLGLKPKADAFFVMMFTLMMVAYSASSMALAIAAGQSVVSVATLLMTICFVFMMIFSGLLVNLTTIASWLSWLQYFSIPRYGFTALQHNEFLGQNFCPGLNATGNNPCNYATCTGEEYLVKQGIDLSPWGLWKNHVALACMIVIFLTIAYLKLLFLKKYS
Method: After incubation with test compounds, MgATP was added to each well and incubated at 37 °C for 10 min. The ATPase reaction was stopped by the addition of 1x Developer solution at room temperature (RT). Two minutes after, 100 µL Blocker solution was added and the plate was incubated for 30 min at 37 °C for 30 min. The optical densities were measured at 620 nm using a PowerWave X Microplate spectrophotometer (BioTek, Bad Friedrichshall, Germany).

BCRP [3] = target: T1, BCRP; test: Cellular dye efflux assay (Hoechst 33342) in HT29SN-38-RES cells; assay type: cell-based; parameters: endogenous in cells; host or cells: HT29 SN-38-RES (drug-selected HT29); settings: fluorescence microscopy and imaging cytometry
CYP2B6 [4] = target: T2, CYP2B6 (Homo sapiens, UniProt P20813); settings: both, 10 min, pH 7.4
CYP2B6 [5] = target: T2, CYP2B6; test: biochemical
OATP1B1 = target: T3, OATP1B1 (Homo sapiens, UniProt Q9Y6L6); test: Fluorometric transporter inhibition, OATP1B1-CHO; assay type: in vitro ADME; settings: FMTX substrate
T3 construct: expressed in transfected cells; host or cells: CHO
Method: (§2) Cells were seeded in a 96-well plate (20,000 cells/well) and used on days 2 or 3 post-seeding. […] Subsequently, substrate was added to the plate followed by 20 min incubation at 37 °C. The plate was then washed with cold assay buffer followed by fluorescence reading on a plate reader. The tested transporters, cell lines, substrates, and reference inhibitors are shown in the Supplementary Materials (Tables S1 and S2).
110 Table S1. In vitro DMPK analysis of transporter inhibition
OATP1B1 OATP1B1-CHO Fluorescein methotrexate Rifampicin […]
OATP1B1 (h) inhibition (OATP1B1-CHO, FMTX substrate) […]
(§3) The IC50 values are shown for the analysed transporters with […]

OATP1B3 = target: T4, OATP1B3 (Homo sapiens, UniProt Q9NPD5); test: Fluorometric transporter inhibition, OATP1B3-CHO; assay type: in vitro ADME; settings: FMTX substrate
T4 construct: expressed in transfected cells; host or cells: CHO
Method: as §2
(§4) 110 Table S1. […]
OATP1B3 OATP1B3-CHO Fluorescein methotrexate Rifampicin […]
OATP1B3 (h) inhibition (OATP1B3 -CHO, FMTX substrate) […]
as §3

OAT3 = target: T5, OAT3 (Homo sapiens, UniProt Q8TCC7); test: Fluorometric transporter inhibition, OAT3-CHO; assay type: in vitro ADME; settings: CF substrate
T5 construct: expressed in transfected cells; host or cells: CHO
Method: as §2, §4
OAT3 (h) inhibition (OAT3-CHO, CF substrate) […]
as §3

CYP2C19 = CYP2C19 (Homo sapiens, UniProt P33261); test: CYP inhibition, CYP2C19; settings: HLM, omeprazole substrate
MDCK-II-WT cells = test: MDR reversal analysis with MTT assay, MDCK-II-WT; assay type: cell-based, canine; settings: Canis lupus familiaris, 72 h drug exposure, read-out: IC50 Value for Each Cell Line: MDCK-II-WT
CYP2C8 = CYP2C8 (Homo sapiens, UniProt P10632); settings: both, 10 min, pH 7.4
[6] = cited from earlier work
HT29SN-38-RES cells = test: MDR reversal analysis with MTT assay, HT29SN-38-RES; assay type: cell-based, human; settings: 72 hours, oxaliplatin is not a substrate for BCRP
Method: as §1

T2 sequence (P20813 whole entry): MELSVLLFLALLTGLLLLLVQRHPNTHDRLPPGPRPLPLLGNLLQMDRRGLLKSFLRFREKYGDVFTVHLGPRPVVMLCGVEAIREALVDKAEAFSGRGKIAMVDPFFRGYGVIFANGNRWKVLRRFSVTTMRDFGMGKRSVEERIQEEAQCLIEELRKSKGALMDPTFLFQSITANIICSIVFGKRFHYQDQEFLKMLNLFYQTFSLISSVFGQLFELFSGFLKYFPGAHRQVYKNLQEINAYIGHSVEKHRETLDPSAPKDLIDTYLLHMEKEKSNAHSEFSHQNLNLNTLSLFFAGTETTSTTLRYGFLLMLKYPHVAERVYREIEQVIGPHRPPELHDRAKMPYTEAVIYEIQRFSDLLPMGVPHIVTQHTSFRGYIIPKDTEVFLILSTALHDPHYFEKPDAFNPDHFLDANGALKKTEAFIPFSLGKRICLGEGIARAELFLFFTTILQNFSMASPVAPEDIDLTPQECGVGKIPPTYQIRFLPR
T4 sequence (Q9NPD5 whole entry): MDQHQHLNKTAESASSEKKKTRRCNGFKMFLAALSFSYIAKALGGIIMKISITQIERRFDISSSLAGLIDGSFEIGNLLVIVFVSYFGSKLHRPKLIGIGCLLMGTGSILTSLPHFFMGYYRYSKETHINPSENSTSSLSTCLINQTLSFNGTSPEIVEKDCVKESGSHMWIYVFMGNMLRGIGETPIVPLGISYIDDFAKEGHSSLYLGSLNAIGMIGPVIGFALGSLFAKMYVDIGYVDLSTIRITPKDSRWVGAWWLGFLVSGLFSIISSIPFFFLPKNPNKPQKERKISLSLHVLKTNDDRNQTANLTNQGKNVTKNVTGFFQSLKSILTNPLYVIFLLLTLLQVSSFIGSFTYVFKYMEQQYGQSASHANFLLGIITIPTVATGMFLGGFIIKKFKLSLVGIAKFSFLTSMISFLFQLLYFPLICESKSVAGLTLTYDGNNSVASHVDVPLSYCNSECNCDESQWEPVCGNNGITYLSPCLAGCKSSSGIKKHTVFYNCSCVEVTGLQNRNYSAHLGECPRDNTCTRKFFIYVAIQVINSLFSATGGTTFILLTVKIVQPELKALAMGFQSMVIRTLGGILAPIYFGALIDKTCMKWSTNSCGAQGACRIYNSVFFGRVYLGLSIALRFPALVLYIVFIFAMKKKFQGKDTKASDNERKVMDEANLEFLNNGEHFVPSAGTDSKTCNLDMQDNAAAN
T3 sequence (Q9Y6L6 whole entry): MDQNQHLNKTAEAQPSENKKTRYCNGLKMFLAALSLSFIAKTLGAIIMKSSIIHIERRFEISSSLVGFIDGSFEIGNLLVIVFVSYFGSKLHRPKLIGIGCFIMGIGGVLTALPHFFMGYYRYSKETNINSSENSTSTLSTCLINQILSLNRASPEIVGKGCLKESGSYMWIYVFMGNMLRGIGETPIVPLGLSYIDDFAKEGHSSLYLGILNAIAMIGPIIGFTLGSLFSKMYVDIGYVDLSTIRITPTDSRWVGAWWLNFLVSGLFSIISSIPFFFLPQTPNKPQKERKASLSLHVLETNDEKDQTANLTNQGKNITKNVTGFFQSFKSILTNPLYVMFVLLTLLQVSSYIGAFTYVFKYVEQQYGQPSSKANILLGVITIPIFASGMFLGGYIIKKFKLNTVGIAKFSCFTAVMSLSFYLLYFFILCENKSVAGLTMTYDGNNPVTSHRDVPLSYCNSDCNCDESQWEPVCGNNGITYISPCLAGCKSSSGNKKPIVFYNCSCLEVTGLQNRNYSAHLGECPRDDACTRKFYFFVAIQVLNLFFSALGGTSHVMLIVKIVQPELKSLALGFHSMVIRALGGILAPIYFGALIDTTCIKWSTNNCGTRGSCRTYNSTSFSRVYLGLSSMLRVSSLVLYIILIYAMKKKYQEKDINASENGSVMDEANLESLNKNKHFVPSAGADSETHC
Chain of CYP2C8 (P10632 whole entry): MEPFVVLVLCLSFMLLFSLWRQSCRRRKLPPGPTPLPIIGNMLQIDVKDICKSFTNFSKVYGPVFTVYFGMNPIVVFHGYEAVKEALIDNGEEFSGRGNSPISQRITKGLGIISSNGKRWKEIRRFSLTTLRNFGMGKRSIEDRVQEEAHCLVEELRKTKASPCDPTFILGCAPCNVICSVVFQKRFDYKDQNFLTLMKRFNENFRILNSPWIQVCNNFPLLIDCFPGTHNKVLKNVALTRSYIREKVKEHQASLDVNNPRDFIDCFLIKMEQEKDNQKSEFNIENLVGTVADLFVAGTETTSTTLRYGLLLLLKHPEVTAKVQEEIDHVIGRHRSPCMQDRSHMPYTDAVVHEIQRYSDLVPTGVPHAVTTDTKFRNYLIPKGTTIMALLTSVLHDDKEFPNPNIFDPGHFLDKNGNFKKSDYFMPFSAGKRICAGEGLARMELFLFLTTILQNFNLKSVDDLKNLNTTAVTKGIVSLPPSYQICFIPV
Chain of CYP2C19 (P33261 whole entry): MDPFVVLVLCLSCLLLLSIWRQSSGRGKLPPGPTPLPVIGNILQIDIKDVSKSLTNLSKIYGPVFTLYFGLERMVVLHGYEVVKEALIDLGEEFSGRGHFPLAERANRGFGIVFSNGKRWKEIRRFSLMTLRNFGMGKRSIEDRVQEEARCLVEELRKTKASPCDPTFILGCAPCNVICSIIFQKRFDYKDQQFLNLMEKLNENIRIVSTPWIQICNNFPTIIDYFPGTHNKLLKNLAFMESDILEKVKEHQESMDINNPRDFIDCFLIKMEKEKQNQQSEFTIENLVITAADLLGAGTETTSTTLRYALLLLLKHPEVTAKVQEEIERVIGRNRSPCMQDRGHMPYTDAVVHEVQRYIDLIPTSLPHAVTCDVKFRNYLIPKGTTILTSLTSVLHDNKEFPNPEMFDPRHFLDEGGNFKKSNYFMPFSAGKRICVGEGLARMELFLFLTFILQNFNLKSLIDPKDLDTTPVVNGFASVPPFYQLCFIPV
T5 sequence (Q8TCC7 whole entry): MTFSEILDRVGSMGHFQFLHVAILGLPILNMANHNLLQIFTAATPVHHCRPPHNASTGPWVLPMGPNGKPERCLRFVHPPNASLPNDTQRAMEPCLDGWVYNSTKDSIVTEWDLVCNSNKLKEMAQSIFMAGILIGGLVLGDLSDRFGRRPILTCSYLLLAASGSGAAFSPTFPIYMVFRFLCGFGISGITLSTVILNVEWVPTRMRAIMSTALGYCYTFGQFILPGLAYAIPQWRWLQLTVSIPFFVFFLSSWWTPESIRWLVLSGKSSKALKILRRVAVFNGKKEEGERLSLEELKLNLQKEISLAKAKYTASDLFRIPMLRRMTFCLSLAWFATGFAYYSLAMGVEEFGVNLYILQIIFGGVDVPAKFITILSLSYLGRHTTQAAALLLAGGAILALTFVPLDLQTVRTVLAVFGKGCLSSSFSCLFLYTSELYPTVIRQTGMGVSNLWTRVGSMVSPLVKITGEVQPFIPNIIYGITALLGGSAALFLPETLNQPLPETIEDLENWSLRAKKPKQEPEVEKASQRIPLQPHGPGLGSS
Chain of CYP2D6 (P10635 whole entry): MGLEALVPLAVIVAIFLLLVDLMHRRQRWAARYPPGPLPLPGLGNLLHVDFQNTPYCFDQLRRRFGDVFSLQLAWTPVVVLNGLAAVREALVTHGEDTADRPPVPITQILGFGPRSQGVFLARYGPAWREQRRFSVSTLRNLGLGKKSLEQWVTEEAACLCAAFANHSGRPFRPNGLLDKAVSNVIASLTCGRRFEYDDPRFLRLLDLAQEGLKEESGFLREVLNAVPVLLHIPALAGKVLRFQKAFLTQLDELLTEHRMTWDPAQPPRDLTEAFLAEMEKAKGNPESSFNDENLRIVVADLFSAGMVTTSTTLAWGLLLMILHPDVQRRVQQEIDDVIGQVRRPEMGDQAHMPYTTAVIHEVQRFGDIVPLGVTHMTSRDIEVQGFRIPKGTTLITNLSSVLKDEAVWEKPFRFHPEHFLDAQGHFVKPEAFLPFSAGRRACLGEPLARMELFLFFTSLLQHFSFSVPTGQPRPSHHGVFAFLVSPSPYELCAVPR

SMILES: C=C[C@H]1C[N@@]2CC[C@H]1C[C@@H]2[C@@H](O)c1ccnc2ccc(OC)cc12 [Quinidine]
- nH (CYP2D6): 1.1

SMILES: OC[C@@H](O)[C@@H](O)[C@H](O)[C@H](O)CO [mannitol]
- Papp at 120 min, 0.8 µCi/mL [1]: 0.21 ×10⁻⁶ cm/s

SMILES: CO[C@H]1/C=C/O[C@@]2(C)Oc3c(C)c(O)c4c(O)c(c(/C=N/N5CCN(C)CC5)c(O)c4c3C2=O)NC(=O)/C(C)=C\C=C\[C@H](C)[C@H](O)[C@@H](C)[C@@H](O)[C@@H](C)[C@H](OC(C)=O)[C@@H]1C [Rifampicin]
- nH (OATP1B1): 0.6
- IC50 (OATP1B1; NC: not calculable): 2200 nM
- nH (OATP1B3): 0.4
- IC50 (OATP1B3; NC: not calculable): 5.4 µM

SMILES: O=C1c2c(O)ccc(O)c2C(=O)c2c(NCCNCCO)ccc(NCCNCCO)c21 [Mitoxantrone]
- IC50 (MDCK-II-WT cells): 157 ± 23 nM

SMILES: CC(C)(O)c1ccccc1CC[C@@H](SCC1(CC(=O)O)CC1)c1cccc(/C=C/c2ccc3ccc(Cl)cc3n2)c1 [Montelukast]
- nH (CYP2C8): 0.8

SMILES: COc1ccc2c3c([nH]c2c1)[C@H](CC(C)C)N1C(=O)[C@H](CCC(=O)OC(C)(C)C)NC(=O)[C@@H]1C3 [Ko143, reference compound]
- stability in plasma [6]: not stable in plasma
- combinatorial effect with oxaliplatin on cell viability (HT29SN-38-RES cells): no added effects

The remaining lines, values ahead:

- IC50 (HT29PAR cells): 16 ± 10 nM
SMILES: CCc1c2c(nc3ccc(O)cc13)-c1cc3c(c(=O)n1C2)COC(=O)[C@]3(O)CC [SN-38, 7-Ethyl-10-hydroxycamptothecin]

- apparent permeability in the efflux direction (basolateral to apical) (Caco-2 cell monolayers): 2.7 ± 0.2 × 10^−5 cm/second
- apparent permeability in the opposite direction (apical to basolateral) (Caco-2 cell monolayers): 2.2 ± 0.01 × 10^−6 cm/second
- efflux ratio (PB-A/PA-B) (Caco-2 cell monolayers): 12.2
SMILES: C[C@]12CC[C@@H]3c4ccc(OS(=O)(=O)O)cc4CC[C@H]3[C@@H]1CCC2=O [[^3H]-estrone-3-sulfate]

- maximal ATPase activity (BCRP [2]): 104.8 nmol Pi/mg protein/min
SMILES: O=C(O)c1cc(/N=N/c2ccc(S(=O)(=O)Nc3ccccn3)cc2)ccc1O [Sulfasalazine, reference compound]

- Hoechst accumulation in resistant cells (BCRP [3]): did not have any effects
SMILES: C/C=C/C[C@@H](C)C(=O)[C@H]1C(=O)N[C@@H](C(C)C)C(=O)N(C)CC(=O)N(C)[C@@H](CC(C)C)C(=O)N[C@@H](C(C)C)C(=O)N(C)[C@@H](CC(C)C)C(=O)N[C@@H](C)C(=O)N[C@H](C)C(=O)N(C)[C@@H](CC(C)C)C(=O)N(C)[C@@H](CC(C)C)C(=O)N(C)[C@@H](C(C)C)C(=O)N1C [PSC833, reference compound]

- IC50 (HT29PAR cells): 8 ± 3 nM
SMILES: CC[C@@]1(O)C(=O)OCc2c1cc1n(c2=O)Cc2cc3c(CN(C)C)c(O)ccc3nc2-1 [Topotecan]

- nH (CYP2B6 [4]): 1.3
- IC50 (CYP2B6 [5]): 740 nM
SMILES: COC(=O)[C@H](c1ccccc1Cl)N1CCc2sccc2C1 [Clopidogrel]

- nH (OAT3): 0.6
SMILES: CCCN(CCC)S(=O)(=O)c1ccc(C(=O)O)cc1 [Probenecid]

- nH (CYP2C19): 1.0
SMILES: CCN(CC)CC#CCOC(=O)C(O)(c1ccccc1)C1CCCCC1 (stereo not drawn) [Oxybutynin]
